Experimental data taken from US11642339B2 (THERAVANCE BIOPHARMA R&D IP, LLC, priority 2017, dated 2023).
Like-named read-outs stand apart in the source and are kept apart here.

Key:
[1] = tested on: subjects with diabetic or idiopathic gastroparesis
[2] = tested on: subjects with diabetic or idiopathic gastroparesis; experiment: DIGEST I: responder analysis of GRS Summary Scores;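 further: weekly responder means a clinically relevant symptom change versus baseline, and weeks with missing data (dropouts) count as non-response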
[3] = 15 mg/day, Week 4, idiopathic gastroparesis population
[4] = 15 mg/day, Week 8, diabetic gastroparesis population
[5] = 15 mg/day, Week 8, idiopathic gastroparesis population
[6] = 15 mg/day, Week 12, diabetic gastroparesis population
[7] = 15 mg/day, Week 12, idiopathic gastroparesis population
[8] = 30 mg/day, Week 4, diabetic gastroparesis population
[9] = 30 mg/day, Week 4, idiopathic gastroparesis population
[10] = 30 mg/day, Week 8, diabetic gastroparesis population
[11] = 30 mg/day, Week 8, idiopathic gastroparesis population
[12] = 30 mg/day, Week 12, diabetic gastroparesis population
[13] = 30 mg/day, Week 12, idiopathic gastroparesis population
[14] = 5 mg/day, responders for at least 6 of 12 weeks, ITT
[15] = 15 mg/day, at least 6 of 12 weeks and at least 3 weeks of Weeks 9-12, ITT
[16] = 15 mg/day, diabetic gastroparesis population
[17] = 15 mg/day, idiopathic gastroparesis population
[18] = 15 mg/day, responders for at least 6 of 12 weeks, ITT
[19] = 30 mg/day, at least 6 of 12 weeks and at least 3 weeks of Weeks 9-12, ITT
[20] = 30 mg/day, diabetic gastroparesis population
[21] = 30 mg/day, idiopathic gastroparesis population
[22] = 30 mg/day, responders for at least 6 of 12 weeks, ITT

With “1-isopropyl-2-oxo-1,2-dihydroquinoline-3-carboxylic acid {(1S,3R,5R)-8-[(R)-2-hydroxy-3-(methanesulfonyl-methyl-amino)propyl]-8-azabicyclo[3.2.1]oct-3-yl}amide [Velusetrag]” the “LS Mean Difference vs placebo, GRS Summary Score 1 (Factor 1)” value (shortened to “LS Mean Difference vs placebo”) [1, 3] was −0.4 (0.25) points, the “LS Mean change from baseline, GRS Summary Score 1 (Factor 1)” value (from here on “LS Mean change from baseline”) [1, 3] was −1.2 (0.18) points and the “LS Mean Difference vs placebo” value ([1]; 15 mg/day, Week 8, ITT) was −0.1 (0.19) points. For the same substance, the “LS Mean change from baseline” value ([1]; 15 mg/day, Week 8, ITT) was −1.2 (0.14) points, the “LS Mean Difference vs placebo” value [1, 4] was 0.0 points and the “LS Mean change from baseline” value [1, 4] was −1.2 points. For the same substance, the “LS Mean Difference vs placebo” value [1, 5] was −0.4 (0.28) points, the “LS Mean change from baseline” value [1, 5] was −1.3 (0.20) points and the “LS Mean Difference vs placebo” value ([1]; 15 mg/day, Week 12, ITT) was −0.2 (0.2) points. The “LS Mean change from baseline” value ([1]; 15 mg/day, Week 12, ITT) was −1.3 (0.15) points, the “LS Mean Difference vs placebo” value [1, 6] was 0.0 points and the “LS Mean change from baseline” value [1, 6] was −1.3 points. The “LS Mean Difference vs placebo” value [1, 7] was −0.4 (0.29) points, the “LS Mean change from baseline” value [1, 7] was −1.4 (0.22) points and the “LS Mean Difference vs placebo” value ([1]; 30 mg/day, Week 4, ITT) was 0.0 (0.17) points. For the same substance, the “LS Mean change from baseline” value ([1]; 30 mg/day, Week 4, ITT) was −0.8 (0.12) points, the “LS Mean Difference vs placebo” value [1, 8] was 0.1 points and the “LS Mean change from baseline” value [1, 8] was −0.8 points. The “LS Mean Difference vs placebo” value [1, 9] was −0.0 (0.23) points, the “LS Mean change from baseline” value [1, 9] was −0.8 (0.16) points and the “LS Mean Difference vs placebo” value ([1]; 30 mg/day, Week 8, ITT) was −0.1 (0.18) points. For the same substance, the “LS Mean change from baseline” value ([1]; 30 mg/day, Week 8, ITT) was −1.1 (0.13) points, the “LS Mean Difference vs placebo” value [1, 10] was 0.0 points and the “LS Mean change from baseline” value [1, 10] was −1.2 points. For the same substance, the “LS Mean Difference vs placebo” value [1, 11] was −0.2 (0.26) points, the “LS Mean change from baseline” value [1, 11] was −1.1 (0.18) points and the “LS Mean Difference vs placebo” value ([1]; 30 mg/day, Week 12, ITT) was −0.1 (0.2) points. For the same substance, the “LS Mean change from baseline” value ([1]; 30 mg/day, Week 12, ITT) was −1.2 (0.14) points, the “LS Mean Difference vs placebo” value [1, 12] was −0.1 points and the “LS Mean change from baseline” value [1, 12] was −1.3 points. The “LS Mean Difference vs placebo” value [1, 13] was −0.1 (0.28) points, the “LS Mean change from baseline” value [1, 13] was −1.1 (0.19) points and the “LS Proportion of positive responders; Summary Score 1” value (“LS Proportion … Summary Score 1” below) [2, 14] was 0.54. The “LS Proportion of positive responders; Summary Score 2” value (“LS Proportion … Summary Score 2” for short) [2, 14] was 0.57, the “Responders, %; Summary Score 1” value [2, 14] was “(55.9) %” and the “Responders, %; Summary Score 2” value [2, 14] was “(57.6) %”. The “Responders, n; Summary Score 1” value [2, 14] was 33, the “Responders, n; Summary Score 2” value [2, 14] was 34 and the “LS Proportion … Summary Score 1” value [2, 15] was 0.45. The “LS Proportion … Summary Score 2” value [2, 15] was 0.43, the “Responders, %; Summary Score 1” value [2, 15] was “(45.3) %” and the “Responders, %; Summary Score 2” value [2, 15] was “(43.4) %”. For the same substance, the “Responders, n; Summary Score 1” value [2, 15] was 24, the “Responders, n; Summary Score 2” value [2, 15] was 23 and the “LS Proportion … Summary Score 1” value [2, 16] was 0.44. For the same substance, the “LS Proportion … Summary Score 2” value [2, 16] was 0.31, the “Responders, %; Summary Score 1” value [2, 16] was “(44.8) %” and the “Responders, %; Summary Score 2” value [2, 16] was “(34.5) %”. The “Responders, n; Summary Score 1” value [2, 16] was 13, the “Responders, n; Summary Score 2” value [2, 16] was 10 and the “LS Proportion … Summary Score 1” value [2, 17] was 0.48. The “LS Proportion … Summary Score 2” value [2, 17] was 0.58, the “Responders, %; Summary Score 1” value [2, 17] was “(45.8) %” and the “Responders, %; Summary Score 2” value [2, 17] was “(54.2) %”. The “Responders, n; Summary Score 1” value [2, 17] was 11, the “Responders, n; Summary Score 2” value [2, 17] was 13 and the “LS Proportion … Summary Score 1” value [2, 18] was 0.49. The “LS Proportion … Summary Score 2” value [2, 18] was 0.51, the “Responders, %; Summary Score 1” value [2, 18] was “(49.1) %” and the “Responders, %; Summary Score 2” value [2, 18] was “(50.9) %”. For the same substance, the “Responders, n; Summary Score 1” value [2, 18] was 26, the “Responders, n; Summary Score 2” value [2, 18] was 27 and the “LS Proportion … Summary Score 1” value [2, 19] was 0.44. For the same substance, the “LS Proportion … Summary Score 2” value [2, 19] was 0.45, the “Responders, %; Summary Score 1” value [2, 19] was “(47.4) %” and the “Responders, %; Summary Score 2” value [2, 19] was “(49.1) %”. The “Responders, n; Summary Score 1” value [2, 19] was 27, the “Responders, n; Summary Score 2” value [2, 19] was 28 and the “LS Proportion … Summary Score 1” value [2, 20] was 0.48. The “LS Proportion … Summary Score 2” value [2, 20] was 0.45, the “Responders, %; Summary Score 1” value [2, 20] was “(50.0) %” and the “Responders, %; Summary Score 2” value [2, 20] was “(50.0) %”. For the same substance, the “Responders, n; Summary Score 1” value [2, 20] was 13, the “Responders, n; Summary Score 2” value [2, 20] was 13 and the “LS Proportion … Summary Score 1” value [2, 21] was 0.41. For the same substance, the “LS Proportion … Summary Score 2” value [2, 21] was 0.45, the “Responders, %; Summary Score 1” value [2, 21] was “(45.2) %” and the “Responders, %; Summary Score 2” value [2, 21] was “(48.4) %”. For the same substance, the “Responders, n; Summary Score 1” value [2, 21] was 14, the “Responders, n; Summary Score 2” value [2, 21] was 15 and the “LS Proportion … Summary Score 1” value [2, 22] was 0.44. For the same substance, the “LS Proportion … Summary Score 2” value [2, 22] was 0.47, the “Responders, %; Summary Score 1” value [2, 22] was “(47.4) %” and the “Responders, %; Summary Score 2” value [2, 22] was “(50.9) %”. For the same substance, the “Responders, n; Summary Score 1” value [2, 22] was 27 and the “Responders, n; Summary Score 2” value [2, 22] was 29.
